Assay results taken from patent US20030130210A1, “Method for treating a patient with neoplasia by treatment with an anthracycline antibiotic” (priority 1998, published 2003).

Columns and labels:
[1] = Side effects of exisulind on administration; type: in vivo; details: doses higher than the recommended therapeutic levels; reversible
Excerpt: This effect is reversible, and liver enzymes return to normal levels when the administered dose of exisulind returns to the traditionally recommended level or when treatment is discontinued. The most serious side effects of anthracycline antibiotics, on the other hand, is their myocardial toxicity and their myelosuppressive activity.

HT-29 cells [2] = assay: Apoptosis by DNA fragmentation assay in HT-29 cells; type: cell-based, human; details: apoptosis inducing activity
HT-29 cells [3] = assay: Cyclic nucleotide (cGMP, cAMP) levels in HT-29 cells by radioimmunoassay; type: cell-based, human; details: HT-29 cells treated for 30 minutes
Experimental: The amount of PDE activity can be determined by assaying for the amount of cyclic GMP in the extract of treated cells using a radioimmunoassay (RIA). In this procedure, a neoplastic cell line is incubated with a test compound. […]
It has been observed that a compound which is useful in the practice of this invention (i.e., one that selectively induces apoptosis in neoplastic cells, but not substantially in normal cells) follows a time course consistent with cGMP-specific PDE inhibition. […] The intracellular targets of these drug actions are being studied further, but current data support the concept that the initial rise in cGMP content and the subsequent fall in cAMP content precede apoptosis in neoplastic cells exposed to test compounds useful in this invention. To determine the cyclic AMP content in cell extracts, radioimmunoassay techniques similar to those described above for cGMP are used.

HT-29 cells [4] = assay: Tumor cell growth inhibition in HT-29 cells; type: cell-based, human; details: 120 μM, viable cell count after trypan blue staining
HT-29 cells [5] = assay: Apoptosis and necrosis by morphology (acridine orange / ethidium bromide) in HT-29 cells; type: cell-based, human; details: 120 μM
Experimental: Treatment of cells with test compounds involves either pre- or post-confluent cultures and treatment for two to seven days at various concentrations of the compound in question. Apoptotic cells are measured by combining both the attached and “floating” compartments of the cultures. The protocol for treating tumor cell cultures with sulindac and related compounds to obtain a significant amount of apoptosis has been described in the literature. (See, Piazza, G. A., et al., Cancer Research, 55:3110-16, 1995, which is incorporated herein by reference). The novel features include collecting both floating and attached cells, identification of the optimal treatment times and dose range for observing apoptosis, and identification of optimal cell culture conditions. […]
Reference compounds and test compounds were analyzed for their cGMP-specific PDE inhibitory activity in accordance with the protocols for the assay, supra. […] Apoptotic and necrotic cell death was determined as previously described (Duke and Cohen, In: Current Protocols in Immunology, 3.17.1-3.17.16, New York, John Wiley and Sons, 1992). […]
The apoptosis inducing activity for a series of phosphodiesterase inhibitors was determined. […] Apoptosis and necrosis were determined morphologically after acridine orange and ethidium bromide labeling in accordance with the assay described, supra.

For CC1=C(CC(=O)O)c2cc(F)ccc2/C1=C\c1ccc(S(C)(=O)=O)cc1 [Exisulind, (Z)-5-fluoro-2-methyl-1-[[4-(methylsulfonyl)phenyl]methylene]indene-3-yl acetic acid], which “side effects at doses higher than recommended” value [1] is on record?
The value was “elevated levels of liver enzymes”.

For CCN(CC)CCSC12CC(=O)OC1(C)/C(=C/c1ccc(S(C)(=O)=O)cc1)c1ccc(F)cc12 (racemic) [A, rac-threo-(E)-1-(N,N′-diethylaminoethanethio)-1-(butan-1′,4′-olido)-[3′,4′:1,2]-6-fluoro-2-methyl-3-(p-methylsulfonylbenzylidene)-indan], which “Fold induction at 100 μM” value (HT-29 cells [2]) is on record?
The value was under 2.0 fold.

With COc1ccc(C2CNC(=O)C2)cc1OC1CCCC1 (stereo not shown) [Rolipram] as the compound, how does the “effect on levels of cAMP” value (HT-29 cells [3]) read?
The value was “increased cAMP levels”.

Which “growth inhibition, time course” value (HT-29 cells [4]) does the source give for CSc1ccc(/C=C2/C(C)=C(CC(=O)O)c3cc(F)ccc32)cc1 [Sulindac sulfide] here?
The value was “capable of inhibiting tumor cell growth”.

What about the “apoptosis, time course” value (HT-29 cells [5]) of the same compound?
The value was “increase in apoptosis”.

And the “effect on levels of cAMP” value (HT-29 cells [3])?
The value was “unaffected”.

With CCCCCC[C@@H]([C@@H](C)O)n1cnc2c(N)ncnc21 (racemic) [EHNA] as the compound, how does the “Fold induction at 100 μM” value (HT-29 cells [2]) read?
The value was under 2.0 fold.
